Experimental findings from patent US20250059196A1 (SHANGHAI HANSOH BIOMEDICAL CO., LTD., priority 2021, published 2025) are described below.

The target in data set [1] is Recombinant human MALT1/MLT protein (Homo sapiens (Human), UniProt Q9UDY8). Description: Inhibitory effect on MALT1 enzyme activity (Ac-LRSR-AMC substrate, fluorescence 460 nm). The data set is classed as biochemical. The conditions noted are these: 10 nM FL MALT1, Ac-LRSR-AMC substrate, 50 min pre-incubation, 4 h reaction. Put shortly: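 Full-length MALT1 (10 nM) pre-incubated 50 min at room temperature with compound (11-point 3-fold series from 1000 nM), then 4 h reaction with […] Ac-LRSR-AMC in Tris pH 7.5, 0.6 M citrate, DTT, EDTA, BSA, 1.5% DMSO. Fluorescence at 460 nm; IC50 from four-parameter fit.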
Sequence of Recombinant human MALT1/MLT protein (Q9UDY8 whole entry): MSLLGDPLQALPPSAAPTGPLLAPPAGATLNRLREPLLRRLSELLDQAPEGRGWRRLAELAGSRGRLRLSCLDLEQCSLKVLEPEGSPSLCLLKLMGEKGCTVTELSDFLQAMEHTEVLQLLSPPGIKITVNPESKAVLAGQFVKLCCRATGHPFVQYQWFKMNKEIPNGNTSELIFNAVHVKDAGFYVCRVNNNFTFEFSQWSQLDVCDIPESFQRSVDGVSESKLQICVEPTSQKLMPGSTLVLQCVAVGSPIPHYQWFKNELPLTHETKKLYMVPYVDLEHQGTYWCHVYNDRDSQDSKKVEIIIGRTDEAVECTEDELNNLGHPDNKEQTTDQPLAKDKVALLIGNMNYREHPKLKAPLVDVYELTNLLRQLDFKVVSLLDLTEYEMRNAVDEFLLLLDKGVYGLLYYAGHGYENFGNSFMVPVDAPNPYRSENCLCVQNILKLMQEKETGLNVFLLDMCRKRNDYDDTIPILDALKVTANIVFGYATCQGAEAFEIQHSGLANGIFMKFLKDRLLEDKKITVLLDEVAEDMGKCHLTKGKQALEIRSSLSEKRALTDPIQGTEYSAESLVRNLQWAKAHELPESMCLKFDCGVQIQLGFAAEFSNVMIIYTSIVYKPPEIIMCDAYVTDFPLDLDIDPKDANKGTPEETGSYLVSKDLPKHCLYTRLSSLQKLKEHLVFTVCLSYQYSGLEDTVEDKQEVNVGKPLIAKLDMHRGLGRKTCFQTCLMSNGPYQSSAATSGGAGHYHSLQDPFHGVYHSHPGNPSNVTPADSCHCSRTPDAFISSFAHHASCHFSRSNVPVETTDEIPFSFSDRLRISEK

Data set [2] can be described thus: Caco-2 bidirectional permeability test. The conditions noted are these: human, Caco-2. Background: Caco-2 cells form a polarised layer with tight junctions and transporters.
Protocol: The purpose of this experiment is to test the bidirectional permeability of the compound through the Caco-2 cell model and evaluate whether the compound is transported by efflux transporters.
Liquid chromatography-mass spectrometer, centrifuge, vortexer, pipette, 96-well test plate (HTS Transwell Plate), acetonitrile solution containing internal standard, Caco-2 cells (ATCC), Hank's balance solution (HBSS), fluorescent yellow (LY), dimethyl sulfoxide (DMSO).
108 μL of transport buffer (HBSS containing 10 μM of the example compound) was added to the administration end of A to B. • b. 300 μL of transport buffer (HBSS containing DMSO) was added to the receiving end of A to B. • c. 300 μL of transport buffer (HBSS containing 10 μM example compound) was added to the administration end of A to B. • d. 108 μL of transport buffer (HBSS containing DMSO) was added to the receiving end of A to B. • e. incubation was performed for 90 min. • d. a sample was taken, processed and detected with mass spectrometry.
• Instruments: Liquid Chromatography; • Chromatographic column: Waters XSelect HSS T3 2.5 μm (2.1×50 mm); • Mobile phase: Phase A: 0.1% formic acid in pure water; Phase B: 0.1% formic acid in acetonitrile.
• Instruments: AP16500+liquid chromatography-mass spectrometer; • The ion source is electrospray ionization source (ESI); • The detection method is positive ion detection;
The scanning method is selected reaction monitoring (MRM).
Data set [3] in a line: Pharmacokinetics of oral administration in Balb/C mice. The data set is classed as in vivo. Particulars: male, mouse, po, 30 mg/kg, P.O., plasma; for AUC(0-t): read-out: AUC 0-t; for Cmax: read-out: Cmax; for MRT: read-out: MRT; for Tmax: read-out: Tmax. The procedure, abridged:
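Male Balb/C mice (n=3), fasted overnight, dosed orally at 30 mg/kg. Orbital plasma sampled at 0, 0.5, 1, 2, 4, 6, 8 and 24 h, acetonitrile-precipitated, and analysed by LC/MS/MS (C18, formic acid/acetonitrile); PK parameters by non-compartmental-style software analysis.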

The IC50 is the concentration needed to halve the response being measured. Usually Papp A→B stands for the apparent permeability from the apical to the basolateral side of a cell layer. Read a high Papp A→B as ready permeation. In general, Papp B→A refers to the apparent permeability from the basolateral to the apical side of a cell layer. By efflux ratio is commonly meant the permeability from basolateral to apical divided by that in the opposite direction, in the common usage. As a reminder, the AUC(0-inf) is the area under the concentration-time curve extrapolated to infinity. A higher AUC(0-inf) goes with high exposure. By half-life is commonly meant the time in which the quantity being followed falls by half. As a reminder, the AUC(0-t) is the area under the concentration-time curve up to a stated or last time point. The term Cmax denotes the highest concentration seen after dosing. By MRT is commonly meant a mean duration of stay, worked out from the concentration-time curve. Broadly, the Tmax is the time at which the peak concentration occurs.

Turning to `O=C(Nc1ccnc(C(F)(F)F)c1)c1cnn(-c2ccc3c4c(cccc24)C(=O)N3)c1C1CC1` [Example 55, 5-cyclopropyl-1-(2-oxo-1,2-dihydrobenzo[cd]indol-6-yl)-N-(2-(trifluoromethyl)pyridin-4-yl)-1H-pyrazole-4-carboxamide], in data set [1], the half-inhibitory concentration (IC50) came to 171 nM. In data set [2], the apical-to-basolateral permeability (Papp A→B) at 90 min, 10 µM was found to be 2.09 ×10⁻⁶ cm/s; the basolateral-to-apical permeability (Papp B→A) at 90 min, 10 µM turned out to be 4.08 ×10⁻⁶ cm/s; the efflux ratio at 90 min, 10 µM came to 1.97. Further, in data set [3], the total exposure AUC(0-inf) turned out to be 472 µg·h/mL, the half-life was 8.6 h, the AUC(0-t) came out at 401 µg·h/mL and the Cmax worked out at 28300 ng/mL. In data set [3], the MRT worked out at 12.2 h and the time to peak (Tmax) amounted to 4 h.
Consider `O=C(Nc1cnc(-n2nccn2)c(C(F)(F)F)c1)c1cnn(-c2ccc3c4c(cccc24)C(=O)N3)c1C(F)(F)F` [Example 18, N-(6-(2H-1,2,3-triazol-2-yl)-5-trifluoromethylpyridin-3-yl)-1-(2-oxo-1,2-dihydrobenzo[cd]indol-6-yl)-5-trifluoromethyl-1H-pyrazole-4-carboxamide], for which, in data set [1], the IC50 came to 24 nM. Further, in data set [3], the AUC(0-inf) was 222 µg·h/mL, the half-life was 1.9 h, the AUC(0-t) turned out to be 222 µg·h/mL and the highest concentration (Cmax) stood at 22900 ng/mL. Moreover, in data set [3], the MRT came to 5.4 h and the Tmax was 2 h.
For the compound `O=C(Nc1ccc(-n2nccn2)c(Cl)c1)c1cnn(-c2ccc3c4c(cccc24)C(=O)N3)c1C(F)(F)F` [Example 53, N-(3-chloro-4-(2H-1,2,3-triazol-2-yl)phenyl)-1-(2-oxo-1,2-dihydrobenzo[cd]indol-6-yl)-5-(trifluoromethyl)-1H-pyrazole-4-carboxamide], the IC50 in data set [1] worked out at 25 nM. Further, in data set [2], the Papp A→B at 90 min, 10 µM amounted to 1.58 ×10⁻⁶ cm/s; the Papp B→A at 90 min, 10 µM turned out to be 4.68 ×10⁻⁶ cm/s; the efflux ratio at 90 min, 10 µM is 2.95. Also, in data set [3], the AUC(0-t) was determined as 256 µg·h/mL, the Cmax is 14100 ng/mL and the time to peak (Tmax) was 8 h.
